Experiments:
Format in all cases: cell-based
Staphylococcus aureus = assay: Microbiological evaluation of overnight bacteria suspensions, modified alginate wound dressing with absorbed substrate on agar; conditions: SA overnight culture, 24 h incubation at 37° C.
Protocol: (§1) ACTIVHEAL® simply A (10×20 cm) non-adhesive foam samples were provided by Advanced Medical Solutions Ltd. The wound dressings were cut into ~5-10×5-10 mm squares, using an ethanol washed pair of scissors. A maximum of 0.20 g of the material was added into 10 mL DI water, and the pH was adjusted to ~3 by the addition of 0.1 M aq. HCl solution. The solution was stirred for 10 mins at room temperature, followed by the addition of 0.33 g EDC •HCl (1.7 mmol) and the pH was maintained at ~3 by the addition of 0.1 M aq. HCl solution. The solution was stirred at room temperature for 10 mins followed by the addition of 0.88 g compound 8 which was dissolved in DMSO or DMF. The mixture was stirred at room temperature for 48 h. The wound dressings were filtered and were washed with ethanol. To ensure the full removal of any non-coupled amide (8), the foam samples were resuspended in ethanol, stirred for 10 mins and filtered, and this process was repeated until the amide (8) was not detectable from the filtrate (this could be maintained by TLC or HPLC evaluation). The samples were dried in a vacuum oven for 3-4 h.
(§2) The aqueous solution of 3a or 3b was prepared by the following: the desired amount of the enzymatic substrate (3.0 mg for 300 mg/L, 6.0 mg for 600 mg/L, 9.0 mg for 900 mg/L, 15.0 mg for 1500 mg/L, and 30.0 mg for 3000 mg/L) was weighed out on a 4 decimal place balance within ±0.3 mg error limit into a 10 mL volumetric flask and was adjusted to 10.0 mL with DI water. The solutions were absorbed into the foam samples and dried in a vacuum oven at 40° C. overnight.
(§3) To model fluid exudate from a chronic wound, the wound dressing made according to ‘Modification of ActivHeal® Alginate’, above, was placed into an agar plate and the test pathogen was smeared over the surface of the agar.
(§4) The enzymatic substrates were tested in 4 different concentrations (300, 600, 900 and 3000 mg/L) using DI water as a solvent, and the solutions were absorbed into the wound dressing samples, which were dried overnight under vacuum at 40° C.
(§5) Two Gram negative strains (Escherichia coli—EC and Pseudomonas aeruginosa—PSA) and a Gram positive bacteria (Staphylococcus aureus—SA) were evaluated against the dimethyl (3a) and the diethyl (3b) substituted substrate. The overnight cultures were directly smeared from LB broth onto Columbia blood agar without measuring the OD. The wound dressings with the enzymatic substrate absorbed were placed onto the agar and were incubated overnight (see FIGS. 2-7).

Escherichia coli = assay: as above; conditions: EC overnight culture, 24 h incubation at 37° C.
Protocol: as §1, §2, §3, §4, §5

Pseudomonas aeruginosa [1] = assay: as above; conditions: PSA overnight culture, 24 h incubation at 37° C.
Protocol: as §1, §2, §3, §4, §5

Pseudomonas aeruginosa [2] = assay: Microbiological evaluation of standardised bacterial suspensions, modified wound dressing with absorbed substrate on agar; parameters: key to Observable colour change: − indicates no colour change; +− indicates relatively discernible blue colour change; + indicates a moderately strong blue colour change; ++ indicates a strong blue colour change
Protocol: as §1, §2
Bacterial strains were routinely cultured from working stocks in Tryptic Soy Broth (TSB) and incubated at 37° C. overnight with shaking at 150 RPM. Overnight cultures were centrifuged at 3000×g for 5 minutes, the supernatant discarded, and the pellet resuspended in 10 mL phosphate buffered saline (PBS). Bacterial inoculums were standardised by optical density at 600 nm on an Amersham Biosciences Ultrospec 10 spectrophotometer (Amersham Biosciences, Amersham, UK) to contain between 1 and 3×10^8 CFU/mL.
However, rapid evaluation of lower bacteria concentrations is essential for the desired clinical application. […] The solutions were absorbed into the wound dressing samples, which were dried overnight under vacuum at 40° C.
Two Gram negative strains (Escherichia coli—EC and Pseudomonas aeruginosa—PSA) and a Gram-positive bacterium (Staphylococcus aureus—SA) were evaluated. The bacteria were incubated overnight, centrifuged at 3000×g for 5 mins, the supernatant was discarded, and the residue pellets were resuspended in 10 mL PBS. The inoculums were standardised by measuring the optical density at 600 nm to assure a 1-3×10^8 CFU/mL. The standardised solutions were further diluted to prepare 1-3×10^6 and 1-3×10^4 CFU/mL suspension. 1×10^6 CFU would be an ideal breakpoint for a positive result, as this concentration coincides well with a level of colonisation that would likely go on to produce an infection.
100 μL bacterial suspensions were smeared over agar plates. Wound dressing samples were added to the top of the agar and were rolled over a few times (to ensure a full coverage and to ease the visibility of the colour change). The plates were incubated at 37° C., and the results were recorded after 24 h, after 48 h, after 72 h. The results are shown in Table 3-5; − indicates no colour change, +− indicates relatively discernible blue colour change, + indicates a moderately strong blue colour change and ++ indicates a strong blue colour change.

## CC(C)C[C@H](N)C(=O)Nc1ccc(N(C)C)cc1.Cl [3a, (2S)-2-amino-N-[4-(dimethylamino)phenyl]-4-methyl-pentanamide hydrochloride]
Staphylococcus aureus; substrate 300 mg/L
  Observable colour change: None
Staphylococcus aureus; substrate 600 mg/L
  Observable colour change: Pale blue
Staphylococcus aureus; substrate 900 mg/L
  Observable colour change: None
Staphylococcus aureus; substrate 3000 mg/L
  Observable colour change: Light blue
Escherichia coli; substrate 300 mg/L
  Observable colour change: Light blue
Escherichia coli; substrate 600 mg/L
  Observable colour change: Light blue
Escherichia coli; substrate 900 mg/L
  Observable colour change: Blue
Escherichia coli; substrate 3000 mg/L
  Observable colour change: Dark blue
Pseudomonas aeruginosa [1]; substrate 300 mg/L
  Observable colour change: None
Pseudomonas aeruginosa [1]; substrate 600 mg/L
  Observable colour change: Light blue
Pseudomonas aeruginosa [1]; substrate 900 mg/L
  Observable colour change: Blue
Pseudomonas aeruginosa [1]; substrate 3000 mg/L
  Observable colour change: Blue
Pseudomonas aeruginosa [2]; PSA 10^4, substrate 300 mg/L, 24 h at 37° C.
  Observable colour change: −
Pseudomonas aeruginosa [2]; PSA 10^4, substrate 300 mg/L, 48 h at 37° C.
  Observable colour change: −
Pseudomonas aeruginosa [2]; PSA 10^4, substrate 300 mg/L, 72 h at 37° C.
  Observable colour change: +
Pseudomonas aeruginosa [2]; PSA 10^4, substrate 900 mg/L, 24 h at 37° C.
  Observable colour change: −
Pseudomonas aeruginosa [2]; PSA 10^4, substrate 900 mg/L, 48 h at 37° C.
  Observable colour change: +−
Pseudomonas aeruginosa [2]; PSA 10^4, substrate 900 mg/L, 72 h at 37° C.
  Observable colour change: ++
Pseudomonas aeruginosa [2]; PSA 10^4, substrate 1500 mg/L, 24 h at 37° C.
  Observable colour change: −
Pseudomonas aeruginosa [2]; PSA 10^4, substrate 1500 mg/L, 48 h at 37° C.
  Observable colour change: −
Pseudomonas aeruginosa [2]; PSA 10^4, substrate 1500 mg/L, 72 h at 37° C.
  Observable colour change: ++
Pseudomonas aeruginosa [2]; PSA 10^6, substrate 300 mg/L, 24 h at 37° C.
  Observable colour change: −
Pseudomonas aeruginosa [2]; PSA 10^6, substrate 300 mg/L, 48 h at 37° C.
  Observable colour change: −
Pseudomonas aeruginosa [2]; PSA 10^6, substrate 300 mg/L, 72 h at 37° C.
  Observable colour change: +
Pseudomonas aeruginosa [2]; PSA 10^6, substrate 900 mg/L, 24 h at 37° C.
  Observable colour change: −
Pseudomonas aeruginosa [2]; PSA 10^6, substrate 900 mg/L, 48 h at 37° C.
  Observable colour change: −
Pseudomonas aeruginosa [2]; PSA 10^6, substrate 900 mg/L, 72 h at 37° C.
  Observable colour change: ++
Pseudomonas aeruginosa [2]; PSA 10^6, substrate 1500 mg/L, 24 h at 37° C.
  Observable colour change: −
Pseudomonas aeruginosa [2]; PSA 10^6, substrate 1500 mg/L, 48 h at 37° C.
  Observable colour change: +−
Pseudomonas aeruginosa [2]; PSA 10^6, substrate 1500 mg/L, 72 h at 37° C.
  Observable colour change: +
Pseudomonas aeruginosa [2]; PSA 10^8, 10^6 or 10^4 CFU, after 72 h, every tested substrate concentration
  colour change: moderate or strong blue colour changes
Pseudomonas aeruginosa [2]; PSA 10^8, substrate 300 mg/L, 24 h at 37° C.
  Observable colour change: −
Pseudomonas aeruginosa [2]; PSA 10^8, substrate 300 mg/L, 48 h at 37° C.
  Observable colour change: −
Pseudomonas aeruginosa [2]; PSA 10^8, substrate 300 mg/L, 72 h at 37° C.
  Observable colour change: +
Pseudomonas aeruginosa [2]; PSA 10^8, substrate 900 mg/L, 24 h at 37° C.
  Observable colour change: −
Pseudomonas aeruginosa [2]; PSA 10^8, substrate 900 mg/L, 48 h at 37° C.
  Observable colour change: +
Pseudomonas aeruginosa [2]; PSA 10^8, substrate 900 mg/L, 72 h at 37° C.
  Observable colour change: ++
Pseudomonas aeruginosa [2]; PSA 10^8, substrate 1500 mg/L, 24 h at 37° C.
  Observable colour change: −
Pseudomonas aeruginosa [2]; PSA 10^8, substrate 1500 mg/L, 48 h at 37° C.
  Observable colour change: +
Pseudomonas aeruginosa [2]; PSA 10^8, substrate 1500 mg/L, 72 h at 37° C.
  Observable colour change: ++
Pseudomonas aeruginosa [2]; PSA, substrate 900 or 1500 mg/L, printed in the 48 h paragraph
  colour change: moderate or strong colour change
